IC90 data for 27 compounds are collected here from patent US20230012368A1 (Hoffmann-La Roche Inc., priority 2018, published 2023).

SMILES strings stand for the structures. Where a name gives a salt, the structure may show the parent alone.

In one assay the test system is Acinetobacter baumannii ATCC 17978. Kind of assay: Antimicrobial susceptibility testing: 90% growth inhibitory concentration (IC90) determination. In kind it is cell-based. The following applies: 90% growth inhibitory concentration; Acinetobacter baumannii ATCC17978; Iso-Sensitest broth, OD 600 nm over 16h; read-out: ATCC17978 IC90. In short, it runs like this:
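Compounds serially twofold diluted (e.g. 50 to 0.097 μM final) in Iso-Sensitest broth, inoculated at ~5×10^(5) CFU/ml, incubated at 35±2° C. OD600 read every 20 minutes over 16h. IC90 taken as concentration inhibiting 90% of growth during logarithmic phase.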
As a reminder, the IC90 is the point of the concentration-response curve where the effect stands at 90%. With `CCc1cc(Nc2nccn3c(-c4ccc(OC)c(F)c4F)cnc23)ccc1C(=O)NCCCCN` [Example 514, N-(4-aminobutyl)-4-((3-(2,3-difluoro-4-methoxyphenyl)imidazo[1,2-a]pyrazin-8-yl)amino)-2-ethylbenzamide hydrochloride], the IC90 was 0.048 µM.

Take `COc1ccc(-c2cnc3c(Nc4ccc(C(=O)N(C)CCN5CCN(CC(F)F)CC5)c(C)c4)nccn23)cc1F` [Example 113, N-[2-[4-(2,2-difluoroethyl)piperazin-1-yl]ethyl]-4-[[3-(3-fluoro-4-methoxy-phenyl)imidazo[1,2-a]pyrazin-8-yl]amino]-N,2-dimethyl-benzamide; formic acid]: the IC90 came to 2 µM.

As to `CCc1cc(Nc2nccn3c(-c4ccc(OC)c(F)c4F)cnc23)ccc1C(=O)NCCCNC(=O)[C@@H](N)CCCNC(=N)N` [Example 343, N-[3-[[(2S)-2-amino-5-carbamimidamidopentanoyl]amino]propyl]-4-[[3-(2,3-difluoro-4-methoxyphenyl)imidazo[1,2-a]pyrazin-8-yl]amino]-2-ethylbenzamide;2,2,2-trifluoroacetic acid], the IC90 was determined as 0.75 µM.

Staying with this assay, now noted: Acinetobacter baumannii, ATCC17978, 16 h, 90% growth inhibitory concentration; Acinetobacter baumannii ATCC17978; Iso-Sensitest broth, OD 600 nm over 16h; read-out: ATCC17978 IC90.
With `COc1ccc(-c2cnc3c(Nc4cc(C)c(C(=O)NCCCN)c(F)c4)nccn23)c(F)c1F` [Example 427, N-(3-aminopropyl)-4-((3-(2,3-difluoro-4-methoxyphenyl)imidazo[1,2-a]pyrazin-8-yl)amino)-2-fluoro-6-methylbenzamide formate], the IC90 was determined as 0.69 µM.

Regarding `CCc1cc(Nc2nccn3c(-c4ccc(OC)c(F)c4F)cnc23)ccc1C(=O)NCCCCCN` [Example 418, N-(5-aminopentyl)-4-((3-(2,3-difluoro-4-methoxyphenyl)imidazo[1,2-a]pyrazin-8-yl)amino)-2-ethylbenzamide hydrochloride], the IC90 came out at 0.033 µM.

Consider `CCc1cc(Nc2nccn3c(-c4ccc(OC)c(F)c4F)cnc23)ccc1C(=O)NCC(O)CNC(=O)CCN` (stereo not drawn) [Example 146, N-[3-(3-aminopropanoyl-amino)-2-hydroxy-propyl]-4-[[3-(2,3-difluoro-4-methoxy-phenyl)imidazo[1,2-a]pyrazin-8-yl]amino]-2-ethyl-benzamide hydrochloride], for which the IC90 worked out at 0.19 µM.

With `COc1ccc(-c2cnc3c(Nc4ccc(C(=O)NCCN5CCNC(=O)C5)c(C)c4)nccn23)cc1F` [Example 216, 4-[[3-(3-fluoro-4-methoxyphenyl)imidazo[1,2-a]pyrazin-8-yl]amino]-2-methyl-N-[2-(3-oxopiperazin-1-yl)ethyl]benzamide], the IC90 amounted to 0.77 µM.

As to `CCc1cc(Nc2nccn3c(-c4ccc(OCC#N)c(F)c4F)cnc23)ccc1C(=O)NCCNC(=O)CN` [Example 136, N-[2-[(2-aminoacetyl)amino]ethyl]-4-[[3-[4-(cyanomethoxy)-2,3-difluoro-phenyl]imidazo[1,2-a]pyrazin-8-yl]amino]-2-ethyl-benzamide formate], the IC90 was determined as 0.06 µM.

Take `COc1ccc(-c2cnc3c(Nc4ccc(C(=O)N[C@H](CO)Cc5cnc[nH]5)c(C)c4)nccn23)cc1F` [Example 383, 4-[[3-(3-fluoro-4-methoxyphenyl)imidazo[1,2-a]pyrazin-8-yl]amino]-N-[(2S)-1-hydroxy-3-(1H-imidazol-5-yl)propan-2-yl]-2-methylbenzamide]: the IC90 came to 0.82 µM.

For `Cc1cc(Nc2nccn3c(-c4ccc(OC(F)F)cc4)cnc23)ccc1C(=O)NCCN1CCNC(=O)C1` [Example 221, 4-[[3-[4-(difluoromethoxy)phenyl]im-idazo[1,2-a]pyrazin-8-yl]amino]-2-methyl-N-[2-(3-oxopiperazin-1-yl)ethyl]benzamide], the IC90 is 1.1 µM.

As for `CCc1cc(Nc2nccn3c(-c4ccc(Oc5ccccn5)c(F)c4F)cnc23)ccc1C(=O)N[C@@H](C)CNC(=O)[C@@H](N)CCNC(=N)N` [Example 456, N-[(1S)-2-[[(2S)-2-amino-4-guanidino-butanoyl]amino]-1-methyl-ethyl]-4-[[3-[2,3-difluoro-4-(2-pyridyloxy)phenyl]imidazo [1,2-a]pyrazin-8-yl]amino]-2-ethyl-benzamide; formic acid], the IC90 worked out at 0.71 µM.

Regarding `CCc1cc(Nc2nccn3c(-c4ccc(OC(F)F)cc4)cnc23)ccc1C(=O)NCCN1CCNCC1` [Example 212, 4-[[3-[4-(difluoromethoxy)phenyl]im-idazo[1,2-a]pyrazin-8-yl]amino]-2-ethyl-N-(2-piperazin-1-ylethyl)benzamide;hydrochlo-ride], the IC90 was 0.64 µM.

Turning to `COc1ccc(-c2cnc3c(Nc4ccc(C(=O)NCCCN5CCNCC5)c(C)c4)nccn23)c(F)c1F` [Example 67, 4-((3-(2,3-difluoro-4-methoxyphenyl)imidazo [1,2-a]pyrazin-8-yl)amino)-2-methyl-N-(3-(piperazin-1-yl)propyl)benzamide], the IC90 worked out at 0.12 µM.

With `Cc1cc(Nc2nccn3c(-c4ccc(OC(F)F)cc4)cnc23)ccc1C(=O)N(C)CC(=O)N1CCOCC1` [Example 279, 4-[[3-[4-(difluoromethoxy)phenyl]im-idazo[1,2-a]pyrazin-8-yl]amino]-N,2-dimethyl-N-(2-morpholin-4-yl-2-oxoethyl)benzamide], the IC90 was determined as 3.4 µM.

`CCc1cc(Nc2nccn3c(-c4ccc(Oc5ccccn5)c(F)c4F)cnc23)ccc1C(=O)N(C)C` [Example 471, 4-[[3-[2,3-difluoro-4-(2-pyridyloxy)phenyl]imidazo [1,2-a]pyrazin-8-yl]amino]-2-ethyl-N,N-dimethyl-benzamide]: the IC90 came to 0.66 µM.

For `CCc1cc(Nc2nccn3c(-c4ccc(OC)c(F)c4F)cnc23)ccc1C(=O)NCCNC(=O)CN` [Example 368, N-[2-[(2-aminoacetyl)amino]ethyl]-4-[[3-(2,3-difluoro-4-methoxyphenyl)imidazo[1,2-a]pyrazin-8-yl]amino]-2-ethylbenzamide], the IC90 is 0.12 µM.

`CCc1cc(Nc2nccn3c(-c4ccc(OC)c(F)c4F)cnc23)ccc1C(=O)NCC(C)(C)N` [Example 524, N-(2-amino-2-methylpropyl)-4-((3-(2,3-difluoro-4-methoxyphenyl)imidazo[1,2-a]pyrazin-8-yl)amino)-2-ethylbenzamide hydrochloride]: the IC90 stood at 0.6 µM.

As to `CCc1cc(Nc2nccn3c(-c4ccc(OC)c(F)c4F)cnc23)ccc1C(=O)NCCN1CCNCC1` [Example 323, 4-[[3-(2,3-difluoro-4-methoxyphenyl)imidazo[1,2-a]pyrazin-8-yl]amino]-2-ethyl-N-(2-piperazin-1-ylethyl)benzamide], the IC90 is 0.06 µM.

Take `CCc1cc(Nc2nccn3c(-c4ccc(OC)c(F)c4F)cnc23)ccc1C(=O)NCc1cnc(N)s1` [Example 569, N-((2-aminothiazol-5-yl)methyl)-4-((3-(2,3-difluoro-4-methoxyphenyl)imidazo[1,2-a]pyrazin-8-yl)amino)-2-ethylbenzamide]: the IC90 stood at 0.084 µM.

In the case of `CCc1cc(Nc2nccn3c(-c4ccc(OC)c(F)c4Cl)cnc23)ccc1C(=O)NCCNC(=O)[C@H](N)CCCNC(=N)N` [Example 129, N-[2-[[(2R)-2-amino-5-guanidino-pentanoyl]amino]ethyl]-4-[[3-(2-chloro-3-fluoro-4-methoxy-phenyl)imidazo[1,2-a]pyrazin-8-yl]amino]-2-ethyl-benzamide formate], the IC90 was 0.25 µM.

For `COc1ccc(-c2cnc3c(Nc4ccc(C(=O)NCCCN5CCNC(C(=O)O)C5)c(Cl)c4)nccn23)c(F)c1F` (stereo not drawn) [Example 314, 4-[3-[[2-chloro-4-[[3-(2,3-difluoro-4-methoxyphenyl)imidazo[1,2-a]pyrazin-8-yl]amino]benzoyl]amino]pro-pyl]piperazine-2-carboxylic acid;formic acid], the IC90 amounted to 1.3 µM.

Regarding `Cc1cc(Nc2nccn3c(-c4ccc(OCC#N)c(F)c4F)cnc23)ccc1C(=O)NCCCNC(=O)[C@@H]1C[C@@H](O)CN1` [Example 357, (2S,4R)-N-[3-[[4-[[3-[4-(cyanomethoxy)-2,3-difluorophenyl]imidazo[1,2-a]pyrazin-8-yl]amino]-2-methylbenzoyl]amino]propyl]-4-hydroxypyrrolidine-2-carboxamide], the IC90 was 0.05 µM.

Take `COc1ccc(-c2cnc3c(Nc4ccc(C(=O)NCCCCCN5CCNCC5)c(C)c4)nccn23)cc1F` [Example 272, 4-[[3-(3-fluoro-4-methoxyphenyl)imidazo[1,2-a]pyrazin-8-yl]amino]-2-methyl-N-(5-piperazin-1-ylpentyl)benzamide;hydrochlo-ride]: the IC90 was 0.12 µM.

With `CCc1cc(Nc2nccn3c(-c4ccc(OC)c(F)c4F)cnc23)ccc1C(=O)NCCCNC(=O)NCCN` [Example 119, N-[3-(2-aminoethylcarbamoylamino)propyl]-4-[[3-(2,3-difluoro-4-methoxy-phenyl)imidazo[1,2-a]pyrazin-8-yl]amino]-2-ethyl-benzamide], the IC90 was 0.18 µM.

Turning to `COc1ccc(-c2cnc3c(Nc4ccc5c(c4)CCNC5=O)nccn23)c(Cl)c1` [Example 179, 6-[[3-(2-chloro-4-methoxyphenyl)imidazo[1,2-a]pyrazin-8-yl]amino]-3,4-dihydro-2H-isoquinolin-1-one], the IC90 came out at 1.7 µM.

For the compound `COc1ccc(-c2cnc3c(Nc4ccc(C(=O)N(C)CCCN5CCNCC5)c(C)c4)nccn23)cc1F` [Example 275, 4-[[3-(3-fluoro-4-methoxyphenyl)imidazo[1,2-a]pyrazin-8-yl]amino]-N,2-dimethyl-N-(3-piperazin-1-ylpropyl)benzamide], the IC90 amounted to 0.35 µM.

Still in this assay, the particulars now being: Acinetobacter baumannii, ATCC17978, 16 h, read-out: ATCC17978 IC90 [μM].
Consider `CCOP(=O)(OCC)N1CCC(CCN(C)C(=O)c2ccc(Nc3nccn4c(-c5ccc(OC(F)F)cc5)cnc34)cc2C)CC1` [Example 115, N-[2-(1-diethoxyphosphoryl-4-piperidyl)ethyl]-4-[[3-[4-(difluoromethoxy)phenyl]imidazo[1,2-a]pyrazin-8-yl]amino]-N,2-dimethyl-benzamide], for which the IC90 was 0.85 µM.
